Measurements published in patent US20200215029A1, “APPLICATION OF AMD3100 IN PREPARATION OF DRUG FOR TREATING AND/OR PREVENTING CACHEXIA AND PHARMACEUTICAL COMPOSITION THEREOF” (SUN YAT-SEN UNIVERSITY, priority 2017, published 2020).

Legend:
[1] = system: muscle and fat-derived Nestin+ cells; experiment: Transwell migration of mouse Nestin+ cells promoted by Cxcl12; format: cell-based; settings: 1 μmol/ml Cxcl12 under the Transwell chamber (8 μm pore), 24 hours, versus control without Cxcl12
Experimental: The Corning Transwell chamber (8 μm pore size) was placed on a 24-well plate, and muscle and fat-derived Nestin+ cells (see example 1) cultured in vitro were inoculated in the Transwell chamber with 2×10^4 cells/well, and cultured in a 5% CO2 and 37° C. incubator. Each well was added with 500 μl of DMEM/low sugar under the Transwell chamber. The experimental group contained 1 μmol/ml Cxcl12 factors, while Cxcl12 factors were not added in control group. After 24 hours, the chamber was taken out, the cells inside the chamber were wiped out with a cotton swab, and the chamber was washed gently and immobilized and rinsed twice with anhydrous alcohol; the chambers in various groups were marked, and erected on the abandoned well plate, and crystal violet dye solution was added into each well for incubate at room temperature for 15 min; excessive staining solution was washed away. The quantity of migrated cells in each group was measured under the inverted microscope. Five fields (400 times) were randomly selected to calculate the quantity of migrated cells in each group under the microscope with 3 repeated wells in each group. The average value of the results was calculated. It can be seen from FIG. 6 that Cxcl 12 can promote the migration of mouse Nestin+ cells.

Nestin+ cells = settings: AMD3100 0.15 mg/kg body weight/day by Alzet slow-release pump, tumor-bearing mice
Experimental: 8-week-old C57 BL/6 male mice having no more than […] of weight were taken and divided into control group, cachexia group (LLC), and AMD3100 group (LLC+AMD3100).
Control group: no treatment.
Cachexia group: 4×10^6 LLC was transplanted subcutaneously into the groin of mice. After 7 days, mice were anesthetized with 100 μL of 10% chloral hydrate, and Alzet slow release pumps (model: 1004) were implanted subcutaneously on the back of mice. The normal saline was contained in the pump.
AMDd3100 group: 4×10^6 LLC was transplanted subcutaneously into the groin of mice. After 7 days, mice were anesthetized with 100 μL of 10% chloral hydrate, and an Alzet slow-release pump (model: 1004) was implanted subcutaneously on its back, and AMD3100 was contained in the pump. The use amount of mice AMD3100 was 0.15 mg/kg weight/day. After 14 days of installation of the slow-release pump, the mice were killed, and the muscle and fat tissue sections were taken for immunofluorescence staining, or RNA reverse transcription for fluorescence quantitative PCR was carried out by extracting RNA reverse transcription to detect the expression of Nestin.

## Cxcl 12: chemokine Cxcl12 factor added under the Transwell chamber; highly expressed in mouse tumor
[1]
  migration of mouse Nestin+ cells (quantity of migrated cells): promote
[1]; listed as Cxcl12
  migration of mouse Nestin+ cells (quantity of migrated cells): promoted

## c1cc(CN2CCCNCCNCCCNCC2)ccc1CN1CCCNCCNCCCNCC1 [AMD3100, 1,1′-[1,4-phenylenebis(methylene)]-di-1,4,8,11-tetraazacyclotetradecane]
Nestin+ cells
  migration of Nestin+ cells from muscles and fats toward tumor: successfully inhibit
